Earlier results, collected in US10821075B1, “Compositions for topical application of a medicaments onto a mammalian body surface” (priority 2017, dated 2020).

Conditions: weak acid drug

pKa: 4.30
SMILES: CC(C(=O)O)c1cccc(C(=O)c2ccccc2)c1 (stereo not shown) [ketoprofen]
